Assay results from US9284280B2, “Use of form-I crystal of 2-{4-[N-(5,6-diphenylpyrazin-2-yl)-N-isopropylamino]butyloxy}-N-(methylsulfonyl)acetamide” (NIPPON SHINYAKU CO., LTD., priority 2009, dated 2016).

Legend:
PGI2 = PGI2 (Homo sapiens, UniProt P43119); settings: background statement, see WO 2002/088084; cited from earlier work
[1] = Measurement of particle size distribution of the crystals (HORIBA LA-910) and observation with electron scanning microscope; assay type: physicochemical; settings: for D10: Cumulative undersize particle diameter at 10% of volumetric ratio / D50: Cumulative undersize particle diameter at 50% of volumetric ratio / D90: Cumulative undersize particle diameter at 90% of volumetric ratio: crystals dispersed with ultrasonic wave in saturated solution of compound A in 0.1 v/v % Polysorbate 80 aqueous solution
Method: After a dispersant (10 mL) was added to the crystals of the invention (20 mg) followed by shaking up, the crystals of the invention were dispersed with ultrasonic wave. The particle size distributions of the crystals of the invention were measured by using HORIBA LA-910. The dispersant used is a filtered saturated solution of compound A in 0.1 v/v % Polysorbate 80 aqueous solution. D10: Cumulative undersize particle diameter at 10% of volumetric ratio [μm] D50: Cumulative undersize particle diameter at 50% of volumetric ratio [μm] D90: Cumulative undersize particle diameter at 90% of volumetric ratio [μm] (2) Observation of the Crystals of the Invention with Electron Scanning Microscope The crystals were observed through an electron scanning microscope (HITACHI HIGH TECHNOLOGIES TM-1000 Miniscope).

PGI2, sequence (P43119 whole entry): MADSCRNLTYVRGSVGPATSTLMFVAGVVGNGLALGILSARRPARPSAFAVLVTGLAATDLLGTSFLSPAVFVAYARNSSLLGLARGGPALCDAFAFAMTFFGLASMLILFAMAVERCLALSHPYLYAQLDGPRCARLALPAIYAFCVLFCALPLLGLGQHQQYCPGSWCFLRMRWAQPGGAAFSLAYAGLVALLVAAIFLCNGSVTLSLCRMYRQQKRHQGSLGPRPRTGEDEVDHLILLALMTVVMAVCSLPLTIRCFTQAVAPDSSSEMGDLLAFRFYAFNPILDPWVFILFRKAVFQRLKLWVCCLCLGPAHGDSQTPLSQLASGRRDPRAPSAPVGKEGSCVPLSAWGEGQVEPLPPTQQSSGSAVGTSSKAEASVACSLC

Row | Compound | PGI2 agonistic effect (PGI2) | particle size compared between crystal forms ([1]; conclusion from particle size distribution and electron scanning micrographs) | D10: Cumulative undersize particle diameter at 10% of volumetric ratio [1] [μm] | D50: Cumulative undersize particle diameter at 50% of volumetric ratio [1] [μm] | D90: Cumulative undersize particle diameter at 90% of volumetric ratio [1] [μm]
1 | CC(C)N(CCCCOCC(=O)NS(C)(=O)=O)c1cnc(-c2ccccc2)c(-c2ccccc2)n1 [Compound A, 2-{4-[N-(5,6-diphenylpyrazin-2-yl)-N-isopropylamino]butyloxy}-N-(methylsulfonyl)acetamide] | excellent PGI2 agonistic effect | – | – | – | –
2 | CC(C)N(CCCCOCC(=O)NS(C)(=O)=O)c1cnc(-c2ccccc2)c(-c2ccccc2)n1 [Form-I Crystal of the Invention, 2-{4-[N-(5,6-diphenylpyrazin-2-yl)-N-isopropylamino]butyloxy}-N-(methylsulfonyl)acetamide] | – | larger than those of Form-II and Form-III crystals | 5.6 | 12.8 | 25.8
3 | CC(C)N(CCCCOCC(=O)NS(C)(=O)=O)c1cnc(-c2ccccc2)c(-c2ccccc2)n1 [Form-II Crystal of the Invention, 2-{4-[N-(5,6-diphenylpyrazin-2-yl)-N-isopropylamino]butyloxy}-N-(methylsulfonyl)acetamide] | – | – | 5.2 | 11.3 | 22.0
4 | CC(C)N(CCCCOCC(=O)NS(C)(=O)=O)c1cnc(-c2ccccc2)c(-c2ccccc2)n1 [Form-III Crystal of the Invention, 2-{4-[N-(5,6-diphenylpyrazin-2-yl)-N-isopropylamino]butyloxy}-N-(methylsulfonyl)acetamide] | – | – | 4.3 | 8.0 | 14.4
